“Also recorded” adds a separate entry of the source. Peptide text beside a SMILES is read from it.
Columns and labels:
rat soleus muscle = assay: Soleus muscle assay: antagonism of 100 nM rat amylin on insulin-stimulated glycogenesis; type: cell-based; conditions: read-out: IC50, antagonism of amylin effect on insulin-stimulation of glycogenesis in skeletal muscle
Procedure: Rat soleus muscle preparations have been in use for many years to study muscle glycogen metabolism and are well known in the field. The soleus muscle assay can be used to measure or test for amylin antagonist activity in vitro. Assays of biological activity of amylin or amylin antagonist preparations in the soleus muscle are performed using previously described methods (e.g., Young, A. A. et al., Am. J. Physiol. 263:E274-281 (1992)).
In summary, while amylin or amylin agonist activity is assessed by measuring the incorporation of radiolabelled glucose into glycogen in soleus muscle in response to an amylin or other amylin agonist, amylin antagonist activity is assessed by measuring the reversal of this inhibition in the presence of 100 nM rat amylin and an amylin antagonist. Concentrations of peptide dissolved in carrier-free buffers are determined by quantitative amino acid analysis, as described herein. The ability of compounds to act as antagonists in this assay can also be evaluated by measuring IC50 values. Standard errors are determined by fitting of sigmoidal dose response curves using a four parameter logistic equation (De Lean, A., Munson, P. J., Guardabasso, V. and Rodbard, D. (1988) ALLFIT, Version 2.7, National Institute of Child Health and Human Development, N.I.H. Bethesda, Md., 1 diskette).
These assays involving the stimulation by insulin of glycogen synthesis in rat soleus muscle in vitro were performed as described by Young, A. A. et al., Am. J. Physiol. 263:E274-281 (1992). Rat amylin inhibited the insulin-stimulated incorporation of radiolabelled glucose into glycogen.
The effects of the peptide in the rat soleus muscle glycogenesis system were measured according to the following method. Insulin-stimulated radioglucose incorporation was measured as described above in the presence of 100 nM rat amylin to maximally suppress incorporation. Increasing concentrations of AAP30 (SEQ ID NO:30), AAP37 (SEQ ID NO:37) and AAP40 (SEQ ID NO:40) were added to test their antagonism of amylin, i.e., to increase radioglucose incorporation under these conditions.

CGRP receptors = target: T1, CGRP receptors (Homo sapiens, UniProt O60894+Q16602); assay: CGRP receptor binding assay (125I human αCGRP, SK-N-MC cell membranes); conditions: for IC50: 20 pM 125I human αCGRP; for selectivity for amylin receptors than CGRP receptors: ratio of CGRP receptor IC50 to amylin receptor IC50
T1 construct: SK-N-MC cells were homogenized in 50 mM HEPES buffer, pH 7.4, and membranes were collected by centrifugation; endogenous in cells; host or cells: human SK-N-MC neuroblastoma cells (membranes)
T1 sequence (Q16602 23-461): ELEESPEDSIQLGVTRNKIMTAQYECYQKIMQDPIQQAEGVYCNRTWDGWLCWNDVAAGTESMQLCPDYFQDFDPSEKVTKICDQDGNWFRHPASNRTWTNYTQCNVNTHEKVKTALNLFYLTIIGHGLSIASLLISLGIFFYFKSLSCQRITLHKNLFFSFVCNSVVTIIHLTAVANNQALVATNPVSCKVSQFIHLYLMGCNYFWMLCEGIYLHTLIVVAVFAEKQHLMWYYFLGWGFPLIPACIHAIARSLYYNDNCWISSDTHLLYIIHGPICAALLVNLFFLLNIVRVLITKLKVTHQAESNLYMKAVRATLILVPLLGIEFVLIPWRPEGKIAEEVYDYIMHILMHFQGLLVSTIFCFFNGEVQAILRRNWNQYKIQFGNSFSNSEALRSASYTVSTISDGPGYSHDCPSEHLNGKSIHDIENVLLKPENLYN
T1 sequence (O60894 27-148): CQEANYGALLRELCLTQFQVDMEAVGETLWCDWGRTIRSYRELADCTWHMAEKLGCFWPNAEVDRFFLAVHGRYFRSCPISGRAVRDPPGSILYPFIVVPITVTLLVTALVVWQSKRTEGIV
Source text: (§1) As more fully described in Example 9, these assays, like the amylin receptor binding assay, are competition assays which measure the ability of compounds to bind specifically to certain membrane-bound receptors. Preferred sources of membrane preparations used in these assays are human SK-N-MC neuroblastoma cells and human T47D carcinoma cells to measure binding to CGRP and calcitonin receptors, respectively. Compounds being assayed compete for binding to the CGRP receptor preparations with ^125 I human αCGRP and to the calcitonin receptor preparations with ^125 I salmon calcitonin. Competition curves are analyzed as described for amylin receptor binding assays. The affinity of a compound for the amylin receptor relative to the affinity of the compound for the CGRP and calcitonin receptors determines the selectivity of the compound.
(§2) The selectivity of antagonist peptides for the amylin receptor relative to the CGRP and calcitonin receptors was determined by using two in vitro radioligand binding assays and comparing the results obtained to those acquired from the amylin receptor binding assay described in Example 7.
To measure the affinity of the peptides for CGRP receptors, human SK-N-MC neuroblastoma cells were used. […] Van Valen, Piechot & Jurgens, Neuroscience Letters 119:195-198 (1990). SK-N-MC cells were homogenized in 50 mM HEPES buffer, pH 7.4, and membranes were collected by centrifugation for 15 min at 48,000×g. Membranes were suspended at 0.1 to 0.2 mg protein/0.2 ml assay and were incubated in 50 mM HEPES, pH 7.4 containing BSA, bacitracin, and 2 mM MgCl2 with 20 pM ^125 I human αCGRP (labeled at ^10 his, 2000 Ci/mmol) and unlabeled peptide. Additional methods were similar to those described for amylin receptor binding assays in Example 2.

calcitonin receptors [1] = target: T2, calcitonin receptors (Homo sapiens, UniProt P30988); assay: Calcitonin receptor binding assay (125I salmon calcitonin, T47D cell membranes); conditions: 30 pM 125I salmon calcitonin, 60 minutes, ambient temperature
T2 construct: Membranes were prepared from confluent cultures of T47D cells as described for SK-N-MC cells; endogenous in cells; host or cells: human T47D carcinoma cells (membranes)
T2 sequence (P30988 25-474): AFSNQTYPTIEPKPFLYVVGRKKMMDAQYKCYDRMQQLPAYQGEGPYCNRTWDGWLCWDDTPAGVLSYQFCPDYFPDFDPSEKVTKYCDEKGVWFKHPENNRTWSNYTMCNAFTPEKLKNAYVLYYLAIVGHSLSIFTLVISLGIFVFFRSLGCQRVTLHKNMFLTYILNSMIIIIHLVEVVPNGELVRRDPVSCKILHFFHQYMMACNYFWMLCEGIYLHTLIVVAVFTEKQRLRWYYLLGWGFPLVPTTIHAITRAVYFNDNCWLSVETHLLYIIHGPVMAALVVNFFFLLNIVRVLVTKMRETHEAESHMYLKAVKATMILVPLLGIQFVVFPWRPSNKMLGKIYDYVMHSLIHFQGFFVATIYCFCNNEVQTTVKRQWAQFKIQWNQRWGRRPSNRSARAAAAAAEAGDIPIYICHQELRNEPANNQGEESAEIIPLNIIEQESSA
Source text: as §1, §2
(§3) To determine the affinity of the antagonist peptides for calcitonin receptors, human T47D carcinoma cells were used. […] Findlay et al., Cancer Research 40:4764-4767 (1980). Membranes were prepared from confluent cultures of T47D cells as described for SK-N-MC cells. Membranes were incubated with ^125 I salmon calcitonin (labeled at ^22 tyr, 2000 Ci/mmol) at a concentration of 30 pM for 60 minutes at ambient temperature. Additional methods were similar to those described for amylin receptor binding assays in Example 2. The IC50 of AAP40 (SEQ ID NO:40) for ^125 I salmon calcitonin binding to human T47D cell membranes was 50 nM.

calcitonin receptors [2] = assay: as above; set-up: species or system human; conditions: ratio of calcitonin receptor IC50 to amylin receptor IC50
Source text: as §1, §2, §3

anesthetized rats [3] = assay: Infusion studies: inhibition of amylin-induced changes in plasma glucose, lactate, calcium and blood pressure; type: in vivo; conditions: rat, i.v. 1.5 mg bolus then 3 mg/hr for 1.5 h; amylin 50 μg bolus + 50 μg/hour
Procedure: Briefly, these studies are performed on anesthetized rats as described in International Application Number PCT/US92/00185, "Amylin Activity Assays", published Jul. 22, 1992. At time -0.5 hours, test rats are infused with a 1.5 mg bolus of the antagonist being tested followed by antagonist infusion at 3 mg/hr for a further 1.5 hours. At time 0 hours, a 50 μg bolus of amylin is administered followed by amylin infusion at 50 μg/hr for the remainder of the experiment. In these tests, the capacity of the antagonist to block the hyperglycemic and hyperlactemic effects of amylin are indicated by the inhibition of amylin-evoked increases in plasma glucose and plasma lactate.
Amylin antagonists were evaluated in vivo for their ability to inhibit amylin-induced elevation of plasma glucose and plasma lactate and amylin-evoked depression of plasma calcium and blood pressure. Male Harlan Sprague Dawley rats (age 75-85 days, mass 300-350 g) fasted 18-20 hours were halothane anesthetized and cannulated via the saphenous vein for infusions/injections and via the femoral artery for sampling of glucose/lactate/calcium and for recording arterial pressure. One and a half hours after surgery they were infused with a 1.5 mg intravenous bolus of test antagonist, followed by an infusion of 3 mg/hour for a further 1.5 hours (t=-0.5→+1.0 hr). At t=0 hours (0.5 hours after the start of the primed/continuous antagonist infusion) a 50 μg intravenous bolus of rat amylin was administered followed by an infusion of 50 μg/hour which continued until the end of the experiment. Blood samples were collected every 10 minutes for the first 2 hours of the test (then less frequently),and mean arterial pressure was continuously recorded from t=-0.5→t=+0.5 hours. Control rats, not administered the test substance, were injected with either saline or with primed/continuous amylin at t=0 hours, as described above.

anesthetized rats [4] = assay: Renin studies: inhibition of amylin-induced plasma renin activity; type: in vivo; conditions: rat, i.v. 0.5 mg then 1.0 mg/hour; amylin 10 μg subcutaneous bolus
Procedure: The amylin antagonist AAP40 (SEQ ID NO:40) was evaluated in vivo for its ability to inhibit amylin-induced plasma renin activity. Male Harlan Sprague Dawley (age 77-82 days, mass 300-350 g) fasted 18-20 hours were halothane anesthetized and cannulated as described in Example 10. One and a half hours after surgery, one treatment group of 7 rats was administered amylin as a 10 μg subcutaneous bolus (t=0). Another treatment group of 6 rats was similarly treated except that they were also administered AAP40 (SEQ ID NO:40) (1 mg/mL) as a primed continuous intravenous infusion of 0.5 mg, then 1.0 mg/hour for a further 1.5 hours (t=-10 min to t=+120 min). Blood samples were collected at t=-30, 0, 30, 60 and 120 min for assessment of plasma renin activity using the INCStar GammaCoat [^125 I] plasma renin activity RIA kit (INCStar, Stillwater, Minn.; Cat. No. CA-533-553). Control rats, not administered AAP40 (SEQ ID NO:40), were injected with either saline or with primed/continuous amylin at t=0 hours, as described above.

Compound	IC50 (rat soleus muscle)	IC50 (CGRP receptors)	selectivity for amylin receptors than CGRP receptors (CGRP receptors)	IC50 (calcitonin receptors [1])	selectivity for amylin receptors than calcitonin receptors (calcitonin receptors [2])	effect on amylin-induced decrease in blood pressure (hypotension) (anesthetized rats [3])	effect on amylin-induced decrease in plasma calcium (hypocalcemia) (anesthetized rats [3])	effect on amylin-induced increase in plasma glucose (hyperglycemia) (anesthetized rats [3])	effect on amylin-induced increase in plasma lactate (hyperlactemia) (anesthetized rats [3])	effect on amylin-induced plasma renin activity (anesthetized rats [4])
CC(=O)N[C@@H](C)C(=O)N[C@H](C(=O)N[C@@H](CCC(N)=O)C(=O)N[C@@H](CC(C)C)C(=O)N[C@@H](CC(C)C)C(=O)N[C@@H](C)C(=O)N[C@@H](CC(N)=O)C(=O)N[C@@H](CCC(N)=O)C(=O)N[C@@H](CC(C)C)C(=O)N[C@H](C(=O)N[C@@H](CCCNC(=N)N)C(=O)N[C@@H](CC(C)C)C(=O)N[C@@H](CCC(N)=O)C(=O)N[C@H](C(=O)N[C@@H](Cc1ccc(O)cc1)C(=O)N1CCC[C@H]1C(=O)N[C@@H](CCCNC(=N)N)C(=O)N[C@H](C(=O)N[C@@H](CC(N)=O)C(=O)N[C@H](C(=O)NCC(=O)N[C@@H](CO)C(=O)N[C@@H](CC(N)=O)C(=O)N[C@H](C(=O)N[C@@H](Cc1ccc(O)cc1)C(N)=O)[C@@H](C)O)C(C)C)[C@@H](C)O)[C@@H](C)O)C(C)C)[C@@H](C)O [AAP30] (Ac-ATQLLANQLVRLQTYPRTNVGSNTY-NH2; N-terminus assumed)	1130 nM	69 nM	43 fold	36 nM	22 fold	did not inhibit amylin-induced decreases in blood pressure	did not inhibit	suppressed; also recorded: prevent	suppressed; also recorded: prevent	–
CC(=O)N[C@@H](C)C(=O)N[C@H](C(=O)N[C@@H](CCC(N)=O)C(=O)N[C@@H](CCCNC(=N)N)C(=O)N[C@@H](CC(C)C)C(=O)N[C@@H](C)C(=O)N[C@@H](CC(N)=O)C(=O)N[C@@H](CCC(N)=O)C(=O)N[C@@H](CC(C)C)C(=O)N[C@H](C(=O)N[C@@H](CCCNC(=N)N)C(=O)N[C@@H](CC(C)C)C(=O)N[C@@H](CCC(N)=O)C(=O)N[C@H](C(=O)N[C@@H](Cc1ccc(O)cc1)C(=O)N1CCC[C@H]1C(=O)N[C@@H](CCCNC(=N)N)C(=O)N[C@H](C(=O)N[C@@H](CC(N)=O)C(=O)N[C@H](C(=O)NCC(=O)N[C@@H](CO)C(=O)N[C@@H](CC(N)=O)C(=O)N[C@H](C(=O)N[C@@H](Cc1ccc(O)cc1)C(N)=O)[C@@H](C)O)C(C)C)[C@@H](C)O)[C@@H](C)O)C(C)C)[C@@H](C)O [AAP37] (Ac-ATQRLANQLVRLQTYPRTNVGSNTY-NH2)	4590 nM	2.6 nM	12 fold	160 nM	762 fold	did block this effect	did not inhibit	suppressed; also recorded: prevent	suppressed; also recorded: prevent	–
CC(=O)N[C@@H](C)C(=O)N[C@H](C(=O)N[C@@H](CCC(N)=O)C(=O)N[C@@H](CCCNC(=N)N)C(=O)N[C@@H](CC(C)C)C(=O)N[C@@H](C)C(=O)N[C@@H](CC(N)=O)C(=O)N[C@@H](CCC(=O)O)C(=O)N[C@@H](CC(C)C)C(=O)N[C@H](C(=O)N[C@@H](CCCNC(=N)N)C(=O)N[C@@H](CC(C)C)C(=O)N[C@@H](CCC(N)=O)C(=O)N[C@H](C(=O)N[C@@H](Cc1ccc(O)cc1)C(=O)N1CCC[C@H]1C(=O)N[C@@H](CCCNC(=N)N)C(=O)N[C@H](C(=O)N[C@@H](CC(N)=O)C(=O)N[C@H](C(=O)NCC(=O)N[C@@H](CO)C(=O)N[C@@H](CC(N)=O)C(=O)N[C@H](C(=O)N[C@@H](Cc1ccc(O)cc1)C(N)=O)[C@@H](C)O)C(C)C)[C@@H](C)O)[C@@H](C)O)C(C)C)[C@@H](C)O [AAP40] (Ac-ATQRLANELVRLQTYPRTNVGSNTY-NH2)	136 nM	33 nM	66 fold	50 nM	100 fold	did not inhibit	did not inhibit	suppressed; also recorded: prevent	suppressed; also recorded: prevent	effectively inhibits
